The target of assay [1] is T1, Serine/threonine-protein kinase LMTK3 (Homo sapiens, UniProt Q96Q04).
T1 sequence (Q96Q04 whole entry): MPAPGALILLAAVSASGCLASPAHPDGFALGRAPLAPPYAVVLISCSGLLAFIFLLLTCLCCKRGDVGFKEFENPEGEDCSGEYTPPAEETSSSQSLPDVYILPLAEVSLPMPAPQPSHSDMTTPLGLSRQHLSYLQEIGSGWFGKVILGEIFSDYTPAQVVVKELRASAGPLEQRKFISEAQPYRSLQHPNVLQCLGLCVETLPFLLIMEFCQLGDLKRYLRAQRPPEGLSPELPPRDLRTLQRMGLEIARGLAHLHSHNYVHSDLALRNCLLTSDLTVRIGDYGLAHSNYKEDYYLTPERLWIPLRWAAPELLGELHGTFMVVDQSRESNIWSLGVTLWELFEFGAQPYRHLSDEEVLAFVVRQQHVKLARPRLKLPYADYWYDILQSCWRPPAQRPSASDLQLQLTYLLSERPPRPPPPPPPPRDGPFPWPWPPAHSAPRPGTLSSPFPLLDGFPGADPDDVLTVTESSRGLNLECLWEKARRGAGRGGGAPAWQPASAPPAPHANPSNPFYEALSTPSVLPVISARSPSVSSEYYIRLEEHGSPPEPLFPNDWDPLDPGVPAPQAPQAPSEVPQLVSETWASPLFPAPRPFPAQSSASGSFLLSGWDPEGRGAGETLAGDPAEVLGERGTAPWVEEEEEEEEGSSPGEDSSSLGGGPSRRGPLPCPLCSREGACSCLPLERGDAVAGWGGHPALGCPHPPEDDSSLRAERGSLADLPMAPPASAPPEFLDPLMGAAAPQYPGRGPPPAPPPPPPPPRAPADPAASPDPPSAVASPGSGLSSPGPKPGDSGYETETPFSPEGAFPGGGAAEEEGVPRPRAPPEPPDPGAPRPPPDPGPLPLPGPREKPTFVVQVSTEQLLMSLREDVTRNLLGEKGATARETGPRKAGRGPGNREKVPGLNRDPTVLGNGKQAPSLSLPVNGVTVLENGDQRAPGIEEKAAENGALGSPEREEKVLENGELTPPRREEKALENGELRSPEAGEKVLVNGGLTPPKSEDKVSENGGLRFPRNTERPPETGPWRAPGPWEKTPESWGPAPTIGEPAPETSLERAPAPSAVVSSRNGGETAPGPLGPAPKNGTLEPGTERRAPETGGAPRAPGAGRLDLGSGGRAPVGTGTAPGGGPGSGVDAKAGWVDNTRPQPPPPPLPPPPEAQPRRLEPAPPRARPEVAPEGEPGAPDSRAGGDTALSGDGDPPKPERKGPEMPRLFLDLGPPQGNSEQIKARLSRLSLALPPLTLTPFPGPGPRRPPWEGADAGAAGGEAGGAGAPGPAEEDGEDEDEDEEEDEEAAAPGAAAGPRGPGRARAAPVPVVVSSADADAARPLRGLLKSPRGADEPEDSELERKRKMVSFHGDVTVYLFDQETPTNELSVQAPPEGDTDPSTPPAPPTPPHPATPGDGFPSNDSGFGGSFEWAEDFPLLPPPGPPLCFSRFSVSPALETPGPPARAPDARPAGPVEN
The assay can be described thus: Inhibition of LMTK3 (unknown origin).

The target in assay [2] is Insulin receptor (Homo sapiens) (UniProt P06213). The assay can be described thus: Inhibition of INSR (unknown origin) at 10 uM relative to control.
Assay [3] concerns the target Insulin-like growth factor 1 receptor (Homo sapiens) (UniProt P08069). The assay can be described thus: Inhibition of IGF1R (unknown origin) at 10 uM relative to control.
For assay [4], the target named is BDNF/NT-3 growth factors receptor (Homo sapiens) (UniProt Q16620). In words: Inhibition of TRKB (unknown origin) at 10 uM relative to control.
Assay [5] concerns the target T2, Muscle, skeletal receptor tyrosine-protein kinase (Homo sapiens) (UniProt O15146).
T2 sequence (whole entry): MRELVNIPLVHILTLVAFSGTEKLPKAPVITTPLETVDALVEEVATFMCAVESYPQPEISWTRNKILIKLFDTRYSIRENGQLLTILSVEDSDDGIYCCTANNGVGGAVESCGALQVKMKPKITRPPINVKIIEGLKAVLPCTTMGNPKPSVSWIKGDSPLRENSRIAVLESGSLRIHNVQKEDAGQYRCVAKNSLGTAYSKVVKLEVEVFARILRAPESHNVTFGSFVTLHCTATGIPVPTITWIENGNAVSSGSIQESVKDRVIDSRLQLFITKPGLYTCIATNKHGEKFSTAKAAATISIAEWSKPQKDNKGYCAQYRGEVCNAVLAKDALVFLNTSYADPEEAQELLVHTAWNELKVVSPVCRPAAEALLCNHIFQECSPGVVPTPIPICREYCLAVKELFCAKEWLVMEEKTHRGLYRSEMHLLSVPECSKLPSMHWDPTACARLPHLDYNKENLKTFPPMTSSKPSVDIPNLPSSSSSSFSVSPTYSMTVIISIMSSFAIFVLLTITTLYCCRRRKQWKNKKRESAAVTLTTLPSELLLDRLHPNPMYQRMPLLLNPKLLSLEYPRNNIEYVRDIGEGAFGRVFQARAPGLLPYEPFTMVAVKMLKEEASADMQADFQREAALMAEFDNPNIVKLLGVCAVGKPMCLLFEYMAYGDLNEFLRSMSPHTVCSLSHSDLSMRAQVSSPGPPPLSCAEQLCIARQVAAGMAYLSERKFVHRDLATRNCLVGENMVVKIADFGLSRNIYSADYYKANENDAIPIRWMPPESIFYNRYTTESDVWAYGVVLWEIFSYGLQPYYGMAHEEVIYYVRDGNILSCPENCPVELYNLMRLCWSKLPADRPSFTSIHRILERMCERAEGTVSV
In words: Inhibition of MUSK (unknown origin) at 10 uM relative to control.

The subject of assay [6] is MCF7. The assay can be described thus: Antiproliferative activity against human MCF7 cells at 20 uM incubated for 6 days by MTT assay relative to control. The format is functional.
In assay [7] the test system is T47D. The assay can be described thus: Antiproliferative activity against human T47D cells at 20 uM incubated for 6 days by MTT assay relative to control. It counts as functional.
The target in assay [8] is T2, Muscle, skeletal receptor tyrosine-protein kinase (Homo sapiens). The assay can be described thus: Inhibition of MUSK (unknown origin) at 100 nM relative to control.
In assay [9] the target is BDNF/NT-3 growth factors receptor (Homo sapiens) (UniProt Q16620). The note with it: 1.52 nM.
Description: Inhibition of TRKB (unknown origin) at 1.52 nM relative to control
For assay [10], the system named is MCF7. The assay can be described thus: Antiproliferative activity against human MCF7 cells at 5 uM incubated for 6 days by MTT assay relative to control. The format is functional.
Assay [11] concerns T47D. The assay can be described thus: Antiproliferative activity against human T47D cells at 5 uM incubated for 6 days by MTT assay relative to control. The format is functional.
Assay [12] relates to MCF7. The assay can be described thus: Antiproliferative activity against human MCF7 cells at 10 uM incubated for 6 days by MTT assay relative to control. The format is functional.
For assay [13], the system named is T47D. In words: Antiproliferative activity against human T47D cells at 10 uM incubated for 6 days by MTT assay relative to control. It counts as functional.
In assay [14] the target is T3, Serine/threonine-protein kinase LMTK3 (Homo sapiens) (UniProt Q96Q04).
T3 sequence (whole entry): T1 sequence (Q96Q04 whole entry)
In words: Binding affinity to full length LMTK3 (unknown origin) assessed as change in melting temperature at 10 uM by CETSA-based Western blot analysis.

For assay [15], the target named is T3, Serine/threonine-protein kinase LMTK3 (Homo sapiens). In words: Binding affinity to hyper glycosylated LMTK3 (unknown origin) assessed as change in melting temperature at 10 uM by CETSA-based Western blot analysis.
Assay [16] has the same target. In words: Binding affinity to full length LMTK3 (unknown origin) assessed as thermal stabilization of protein at 54 degC incubated for 3 mins followed by 3 min incubated at room temperature by CETSA-based Western blot analysis.
The target is the same in assay [17]. The assay can be described thus: Binding affinity to full length LMTK3 (unknown origin) assessed as thermal stabilization of protein at 0.3 to 1 uM at 54 degC incubated for 3 mins followed by 3 min incubated at room temperature by CETSA-based Western blot analysis.

Activity calls are given as the source filed them. No cut-off for these calls is given here. A value given as a limit tells only on which side of the number the result lay.

Chain of Insulin-like growth factor 1 receptor (Homo sapiens) (P08069 31-736 limits assumed): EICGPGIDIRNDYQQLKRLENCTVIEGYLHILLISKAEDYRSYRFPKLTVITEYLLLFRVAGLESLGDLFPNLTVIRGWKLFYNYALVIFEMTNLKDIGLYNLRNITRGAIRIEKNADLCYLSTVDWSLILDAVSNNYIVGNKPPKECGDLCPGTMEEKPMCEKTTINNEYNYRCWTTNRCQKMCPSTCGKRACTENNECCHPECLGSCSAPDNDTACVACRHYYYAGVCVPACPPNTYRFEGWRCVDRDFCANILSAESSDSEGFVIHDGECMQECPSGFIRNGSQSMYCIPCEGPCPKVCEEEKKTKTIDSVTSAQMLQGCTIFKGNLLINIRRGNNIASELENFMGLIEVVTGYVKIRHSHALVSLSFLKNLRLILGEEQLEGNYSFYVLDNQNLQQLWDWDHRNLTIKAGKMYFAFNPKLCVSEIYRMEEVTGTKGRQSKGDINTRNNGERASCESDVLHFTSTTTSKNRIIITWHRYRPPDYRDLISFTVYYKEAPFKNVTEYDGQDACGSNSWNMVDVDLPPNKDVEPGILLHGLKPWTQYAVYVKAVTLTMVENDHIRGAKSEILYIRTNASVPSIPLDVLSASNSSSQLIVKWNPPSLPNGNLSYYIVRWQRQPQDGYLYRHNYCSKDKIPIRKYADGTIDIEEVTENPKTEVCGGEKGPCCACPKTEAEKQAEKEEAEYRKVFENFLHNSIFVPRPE
Chain of Insulin-like growth factor 1 receptor (Homo sapiens) (P08069 741-1367 limits assumed): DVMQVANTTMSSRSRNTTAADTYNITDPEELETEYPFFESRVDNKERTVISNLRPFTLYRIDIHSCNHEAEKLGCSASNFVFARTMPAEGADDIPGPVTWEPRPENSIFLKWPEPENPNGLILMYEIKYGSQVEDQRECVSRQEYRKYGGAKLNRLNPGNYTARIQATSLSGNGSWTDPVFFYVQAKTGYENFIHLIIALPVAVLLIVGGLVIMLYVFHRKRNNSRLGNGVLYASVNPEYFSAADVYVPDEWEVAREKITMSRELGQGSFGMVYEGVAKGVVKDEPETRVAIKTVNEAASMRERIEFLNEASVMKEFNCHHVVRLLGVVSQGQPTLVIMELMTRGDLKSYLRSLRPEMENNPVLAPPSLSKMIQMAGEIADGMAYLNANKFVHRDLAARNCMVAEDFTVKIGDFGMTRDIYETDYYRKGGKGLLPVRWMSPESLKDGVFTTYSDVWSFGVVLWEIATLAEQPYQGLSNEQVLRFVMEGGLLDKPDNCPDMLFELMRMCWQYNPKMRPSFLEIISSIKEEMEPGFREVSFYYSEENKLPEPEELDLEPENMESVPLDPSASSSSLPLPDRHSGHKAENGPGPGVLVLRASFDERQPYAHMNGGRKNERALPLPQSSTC
Chain of BDNF/NT-3 growth factors receptor (Homo sapiens) (Q16620 32-822 limits assumed): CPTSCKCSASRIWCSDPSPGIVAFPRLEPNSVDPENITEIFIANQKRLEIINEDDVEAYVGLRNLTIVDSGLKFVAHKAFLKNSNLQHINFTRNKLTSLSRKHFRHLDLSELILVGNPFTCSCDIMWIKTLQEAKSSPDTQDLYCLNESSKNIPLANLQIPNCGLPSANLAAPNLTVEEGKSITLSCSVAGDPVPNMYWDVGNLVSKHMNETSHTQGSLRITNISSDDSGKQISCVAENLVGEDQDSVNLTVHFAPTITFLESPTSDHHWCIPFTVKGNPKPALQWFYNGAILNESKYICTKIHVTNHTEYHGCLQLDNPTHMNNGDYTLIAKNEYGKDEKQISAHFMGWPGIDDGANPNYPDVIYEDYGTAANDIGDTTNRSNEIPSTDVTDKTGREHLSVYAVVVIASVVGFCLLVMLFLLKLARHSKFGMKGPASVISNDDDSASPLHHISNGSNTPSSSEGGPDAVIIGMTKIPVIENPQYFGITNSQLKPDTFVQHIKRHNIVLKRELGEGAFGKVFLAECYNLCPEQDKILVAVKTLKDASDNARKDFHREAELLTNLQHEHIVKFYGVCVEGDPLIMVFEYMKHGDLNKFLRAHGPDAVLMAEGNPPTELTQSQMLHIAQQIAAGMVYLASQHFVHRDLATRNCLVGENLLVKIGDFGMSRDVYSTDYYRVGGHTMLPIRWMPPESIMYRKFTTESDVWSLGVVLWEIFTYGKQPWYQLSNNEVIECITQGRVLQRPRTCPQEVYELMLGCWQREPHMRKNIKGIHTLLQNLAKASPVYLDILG
Chain of Insulin receptor (Homo sapiens) (P06213 28-758 limits assumed): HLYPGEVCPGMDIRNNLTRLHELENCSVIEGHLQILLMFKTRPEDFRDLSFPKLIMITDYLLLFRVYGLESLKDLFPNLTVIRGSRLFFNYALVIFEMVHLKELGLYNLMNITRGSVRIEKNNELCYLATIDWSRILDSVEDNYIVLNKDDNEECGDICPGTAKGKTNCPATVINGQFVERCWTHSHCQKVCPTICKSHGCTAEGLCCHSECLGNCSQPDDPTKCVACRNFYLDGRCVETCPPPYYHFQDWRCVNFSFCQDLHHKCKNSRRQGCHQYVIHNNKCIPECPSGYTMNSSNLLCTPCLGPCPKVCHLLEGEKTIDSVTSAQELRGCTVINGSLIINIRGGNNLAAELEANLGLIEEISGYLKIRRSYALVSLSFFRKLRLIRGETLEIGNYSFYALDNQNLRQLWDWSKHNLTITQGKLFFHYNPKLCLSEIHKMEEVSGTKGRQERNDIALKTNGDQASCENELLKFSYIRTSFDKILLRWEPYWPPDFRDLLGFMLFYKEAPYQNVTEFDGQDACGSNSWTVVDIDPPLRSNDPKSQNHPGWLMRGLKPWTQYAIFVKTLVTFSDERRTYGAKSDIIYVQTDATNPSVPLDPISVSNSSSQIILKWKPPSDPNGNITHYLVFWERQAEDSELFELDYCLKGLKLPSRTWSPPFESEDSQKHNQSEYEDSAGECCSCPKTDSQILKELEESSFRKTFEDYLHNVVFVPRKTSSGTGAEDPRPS
Chain of Insulin receptor (Homo sapiens) (P06213 763-1382 limits assumed): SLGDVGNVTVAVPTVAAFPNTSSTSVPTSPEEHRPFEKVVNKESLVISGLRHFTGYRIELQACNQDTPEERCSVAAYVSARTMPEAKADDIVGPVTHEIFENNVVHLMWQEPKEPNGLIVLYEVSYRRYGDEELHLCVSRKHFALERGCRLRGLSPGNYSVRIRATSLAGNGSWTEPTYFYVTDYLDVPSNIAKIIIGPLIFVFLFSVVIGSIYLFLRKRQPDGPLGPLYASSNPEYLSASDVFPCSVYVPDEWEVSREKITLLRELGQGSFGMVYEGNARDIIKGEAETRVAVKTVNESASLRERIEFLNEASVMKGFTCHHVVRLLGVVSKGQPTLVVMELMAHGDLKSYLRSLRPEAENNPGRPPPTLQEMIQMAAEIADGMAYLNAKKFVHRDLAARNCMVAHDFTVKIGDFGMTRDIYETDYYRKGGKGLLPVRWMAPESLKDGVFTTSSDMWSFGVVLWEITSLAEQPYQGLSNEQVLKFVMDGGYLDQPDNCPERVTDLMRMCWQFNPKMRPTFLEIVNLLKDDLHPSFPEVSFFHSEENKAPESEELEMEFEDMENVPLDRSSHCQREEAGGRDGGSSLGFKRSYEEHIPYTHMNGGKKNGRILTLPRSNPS

`CC(C)C[C@H]1CNC(=N)N1C[C@H](Cc1ccccc1)NS(=O)(=O)c1ccccc1`: the concentration for half-maximal inhibition (IC50) in assay [1] is 654 nM. Moreover, the inhibition in assay [2] stood at 2.3%; in assay [3], 8.3%; in assay [4] it was 2%; in [5] it was 27.3%. The Activity with MCF7 [6] and in the assay on T47D [7] was 100% in each case.

As for `CC(C)C[C@H]1CNC(=N)N1C[C@H](Cc1ccc(O)cc1)NS(=O)(=O)c1ccccc1Cl`, in [1], the midpoint of inhibition, the IC50, lay at 210 nM. The inhibition stood at 7.3% in assay [2], 15.9% in assay [3], 0.1% in assay [4] and 19.8% in assay [5].

Consider `Cc1ccc(S(=O)(=O)N[C@@H](Cc2ccc(O)cc2)CN2C(=N)NC[C@@H]2CC(C)C)cc1`, for which inhibition in assay [1] was half-maximal at 308 nM (IC50). Moreover, the inhibition in assay [2] worked out at 3.9%; in assay [3], 7.8%; in [4], 0.8%; in assay [5], 22.2%.

Take `CN1CCN(c2ccc(C(=O)Nc3n[nH]c4ccc(Cc5cc(F)cc(F)c5)cc34)c(NC3CCOCC3)c2)CC1` [ENTRECTINIB]: the concentration for half-maximal inhibition (IC50) in assay [1] is 4650 nM. Further, the inhibition was 54.1% in [8] and above 95% in assay [9].

As for `N=C1NC[C@H](CC2CCCCC2)N1C[C@H](Cc1ccccc1)NS(=O)(=O)c1ccccc1`, the concentration for half-maximal inhibition (IC50) in assay [1] was determined as 1610 nM. For the same molecule, the inhibition in [2] came to 18.4%; in [3] it was 11.4%; in assay [4] it was 10.6%; in assay [5], 103%. The Activity is listed as 60% in the assay with MCF7 [10], 60% in the assay with T47D [11], 100% in the assay on MCF7 [12] and 100% with T47D [13]. The result in assay [14], in assay [15], in [16] and in [17] was Active.

As to `N=C1NC[C@H](CC2CCCCC2)N1C[C@H](Cc1ccc(O)cc1)NS(=O)(=O)c1ccccc1Cl`, the concentration for half-maximal inhibition (IC50) in [1] was 226 nM. The inhibition worked out at 0.1% in assay [2], 16.1% in [3], 16% in assay [4] and 56.8% in [5]. Besides, the outcome in assay [16] was inactive.

Consider `Cc1ccc(S(=O)(=O)N[C@@H](Cc2ccc(O)cc2)CN2C(=N)NC[C@@H]2CC2CCCCC2)cc1`, for which, in [1], the IC50 is 318 nM. Moreover, the inhibition is 5.7% in [2], 16.1% in assay [3], 25.3% in [4] and 79.8% in assay [5]. Moreover, the Activity in the assay with MCF7 [6] and with T47D [7] was 50% each time.

In turn, `C[C@@]1(C(=O)Nc2ccc(F)nc2)CCCN1c1nc(Nc2cc(C3CC3)n[nH]2)c2cccn2n1` [BMS-754807] gave an IC50 in [1] of 3160 nM. Further, the inhibition in assay [8] is 75.1%; in assay [9] it was above 95%.

(Values after ChEMBL document CHEMBL4619718, “Discovery of cyclic guanidine-linked sulfonamides as inhibitors of LMTK3 kinase” (Bioorg Med Chem Lett, 2020).)
